Data set [1] is described as follows: TP levels in mouse brain after feeding in diet, LC/MS. In kind it is in vivo. To be noted: CD-1 mice, 200 or 400 mg/kg diet for 3.5 days. On the procedure: FIG. 48. […] CD-1 mice were fed either 200 or 400 mg/kg diet of either TP-319 or TP-500 for 3.5 days, and TP levels in the brains of the mice were analyzed by LC/MS. The structures of TP-319 and TP-500 are shown herein.

In another data set the test system is γ-GCS. Nature of the data set: Nrf2 target gene induction in MDA-MB-435 cells, qPCR: γ-GCS. It is filed as cell-based, human. On the procedure: (§1) FIGS. 44, 46 and 47—Induction of HO-1, TrxR1 and γ-GCS. FIGS. 44A-C, 46A-C, 47A-C: MDA-MB-435 human melanoma cells were treated with vehicle (DMSO) or the indicated compounds (400 nM) for 16 hours. HO-1, thioredoxin reductase-1 (TrxR1), and γ-glutamylcysteine synthetase (γ-GCS) mRNA levels were quantified using qPCR and were normalized relative to a DMSO-treated sample run in parallel. Values are averages of duplicate wells. FIGS. 44D, 46D, 47D: MDA-MB-435 cells were treated with vehicle (DMSO) or the indicated compounds at 400 nM for 16 hours. HO-1, TrxR1 and actin protein levels were assayed by immunoblotting.
(§2) FIG. 45. Induction of HO-1, TrxR1 and γ-GCS. FIGS. 45 A-C: MDA-MB-435 cells were treated with vehicle (DMSO) or the indicated compounds at 160 nM for 16 hours. HO-1, TrxR1, and γ-GCS mRNA levels were quantified by qPCR and were normalized relative to a DMSO-treated sample run in parallel. Values are averages of duplicate wells. FIGS. 44D, 46D, 47D: MDA-MB-435 cells were treated with vehicle (DMSO) or the indicated compounds at 160 nM for 16 hours. HO-1, TrxR1 and actin protein levels were assayed by immunoblotting.
(§3) MDA-MB-435 human melanoma cells were treated with vehicle (DMSO) or the indicated compounds and concentrations for 16 hours. HO-1, thioredoxin reductase-1 (TrxR1), γ-glutamylcysteine synthetase (γ-GCS), and ferritin heavy chain mRNA levels were quantified using qPCR and were normalized relative to a DMSO-treated sample run in parallel. Values are averages of duplicate wells. Primer sequences are as follows.

Data set [2] concerns iNOS. Kind of data set: Suppression of iNOS mRNA induction, qPCR. It is filed as cell-based, mouse. Conditions: RAW264.7; 2 h pre-treatment, 10 ng/ml IFNγ for 2 hours. On the procedure:
FIG. 35. Suppression of iNOS mRNA induction. RAW264.7 mouse macrophages were pre-treated for 2 hours with compounds at the indicated concentrations and subsequently stimulated with 10 ng/ml IFNγ for an additional 2 hours. mRNA levels of iNOS were quantified by qPCR and are shown relative to the vehicle-treated IFNγ-stimulated sample which was normalized to a value of 1. Values are averages of duplicate PCR reactions, each with triplicate wells.
FIG. 36. Suppression of iNOS mRNA induction. RAW264.7 mouse macrophages were pre-treated for 2 hours with compounds at the indicated concentrations and subsequently stimulated with 10 ng/ml IFNγ for an additional 2 hours. mRNA levels of iNOS were quantified by qPCR and are shown relative to the vehicle-treated IFNγ-stimulated sample which was normalized to a value of 1. Values are averages of duplicate PCR reactions, each with triplicate wells.
FIG. 37. Suppression of iNOS mRNA induction. RAW264.7 mouse macrophages were pre-treated for 2 hours with compounds at the indicated concentrations and subsequently stimulated with 10 ng/ml IFNγ for an additional 2 hours. mRNA levels of iNOS were quantified by qPCR and are shown relative to the vehicle-treated IFNγ-stimulated sample which was normalized to a value of 1. Values are averages of duplicate PCR reactions, each with triplicate wells.
RAW264.7 mouse macrophage cells were pre-treated for 2 hours with compounds at the indicated concentrations and subsequently stimulated with 10 ng/ml IFNγ for an additional 2 hours. mRNA levels of iNOS were quantified by qPCR and are shown relative to the vehicle-treated IFNγ-stimulated sample which was normalized to a value of 1. Values are averages of duplicate PCR reactions, each with triplicate wells.
(In qPCR the cycle at which signal appears reflects the starting amount.)

For a further data set, the system named is TrxR1. Kind of data set: Nrf2 target gene induction in MDA-MB-435 cells, qPCR: TrxR1. It is filed as cell-based, human. Conditions: 16 hours. On the procedure: as §1, §2, §3
Another data set relates to HO-1. Kind of data set: Nrf2 target gene induction in MDA-MB-435 cells, qPCR: HO-1. In kind it is cell-based, human. The procedure:
FIG. 43. Induction of HO-1. FIGS. 43A and 43B: MDA-MB-435 human melanoma cells were treated with vehicle (DMSO) or the indicated compounds and concentrations for 16 hours. HO-1 mRNA levels were quantified using qPCR and were normalized relative to a DMSO-treated sample run in parallel. Values are averages of duplicate wells. FIG. 43C: MDA-MB-435 cells were treated with vehicle (DMSO) or the indicated compounds at 400 nM for 16 hours. HO-1, TrxR1 and actin protein levels were assayed by immunoblotting. Actin served as a loading control.
as §1, §2, §3

The next data set relates to RAW264.7 macrophages. Nature of the data set: Cell viability, WST-1 reagent. In kind it is cell-based, mouse. To be noted: 2 h pre-treatment, then 20 ng/ml IFNγ for 24 hours. Put shortly: (§4)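 Mouse RAW264.7 macrophages pre-treated 2 h with compound (nM concentrations) or DMSO, then stimulated with 20 ng/ml recombinant mouse IFNγ for 24 h. Nitrite in medium measured by Griess reagent; viability by WST-1.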
For orientation: Tetrazolium assays rely on reduction of a dye to a coloured formazan, in cell work by metabolically active cells.

Data set [3] relates to iNOS. Nature of the data set: iNOS Western blot in RAW264.7 mouse macrophages. Conditions: compounds at 300 nM for 2 hours, 24 hour induction by IFNγ, read-out: iNOS suppr. WB. In kind it is cell-based. On the procedure: FIGS. 38-40. iNOS Western Blot in RAW264.7 mouse macrophages. Cells were pretreated by compounds at 300 nM for 2 hours, followed by 24 hour induction by IFNγ (20 ng/ml). […]
Background: In western blotting, separated proteins are transferred to a membrane and probed.

Data set [4] deals with IFNγ-induced NO production in RAW264.7 macrophages. Nature of the data set: Suppression of IFNγ-induced NO production (Griess reagent). To be noted: 2 h pre-treatment, then 20 ng/ml IFNγ for 24 hours. It is filed as cell-based, mouse. Put shortly: as §4
Another data set has as its system NQO1. Nature of the data set: Nrf2 target gene induction in MDA-MB-435 cells: NQO1. In kind it is cell-based, human. To be noted: 250 nM.

With `CC1(C)CC[C@]2(C(=O)NCC(F)(F)F)CC[C@]3(C)[C@H](C(=O)C=C4[C@@]5(C)C=C(C#N)C(=O)C(C)(C)[C@@H]5CC[C@]43C)[C@@H]2C1` [CDDO-TFEA], in data set [1], the “TP levels in the brains of the mice” value is on record as “Higher Levels in Mouse Brain than CDDO-EA”.

The IC50 is the concentration at which inhibition is half-maximal. With `CCS(=O)(=O)N[C@]12CCC(C)(C)C[C@H]1[C@H]1C(=O)C=C3[C@@]4(C)C=C(C#N)C(=O)C(C)(C)[C@@H]4CC[C@@]3(C)[C@]1(C)CC2` [Compound 63193, N-((4aS,6aR,6bS,8aR,12aS,14aR,14bS)-11-cyano-2,2,6a,6b,9,9,12a-heptamethyl-10,14-dioxo-1,2,3,4,4a,5,6,6a,6b,7,8,8a,9,10,12a,14,14a,14b-octadecahydropicen-4a-yl)ethanesulfonamide], the γ-GCS induction in the data set with γ-GCS (160 nM, 16 hours) is 55% of induction observed for RTA 402. The “iNOS suppr. qPCR” value in the data set on iNOS [2] was about 65%. Further, the TrxR1 induction with TrxR1 (160 nM) is 86% of induction observed for RTA 402. In the data set with HO-1 (160 nM, 16 hours), the HO-1 induction is recorded as 6% of induction observed for RTA 402. For the same molecule, the results for the IC50 (in the data set on RAW264.7 macrophages (Mus musculus); in data set [4] (Mus musculus)) were over 200 nM and 1.5 nM, respectively. The inhibition at 0.3 µM in the data set on iNOS [3] was over 90%.

Turning to `CC1(C)CC[C@]2(N)CC[C@]3(C)[C@H](C(=O)C[C@@H]4[C@@]5(C)C=C(C#N)C(=O)C(C)(C)[C@@H]5CC[C@]43C)[C@@H]2C1` [Compound 63198, (4aR,6aR,6bR,8aS,12aS,12bR,14aR,14bR)-8a-amino-4,4,6a,6b,11,11,14b-heptamethyl-3,13-dioxo-3,4,4a,5,6,6a,6b,7,8,8a,9,10,11,12,12a,12b,13,14,14a,14b-icosahydropicene-2-carbonitrile], the γ-GCS induction in the data set with γ-GCS (250 nM) was 2.8 fold induction above DMSO control. The NQO1 induction with NQO1 is 1.8 fold induction above DMSO control. The TrxR1 induction with TrxR1 (400 nM) is on record as 71% of induction observed for RTA 402. The HO-1 induction in the data set with HO-1 (250 nM) is given as 1.4 fold induction above DMSO control; with HO-1 (400 nM, 16 hours) it was 2% of induction observed for RTA 402. Besides, the values for the IC50 (with RAW264.7 macrophages (Mus musculus); in data set [4] (Mus musculus)) were over 200 nM and about 30 nM, respectively.

For the molecule `CC1(C)CC[C@]2(O)CC[C@]3(C)[C@H](C(=O)CC4[C@@]5(C)C=C(C#N)C(=O)C(C)(C)[C@@H]5CC[C@]43C)[C@@H]2C1` (stereo partly drawn) [Compound 63208, (4aR,6aR,6bR,8aS,12aS,12bR,14bR)-8a-hydroxy-4,4,6a,6b,11,11,14b-heptamethyl-3,13-dioxo-3,4,4a,5,6,6a,6b,7,8,8a,9,10,11,12,12a,12b,13,14,14a,14b-icosahydropicene-2-carbonitrile], the γ-GCS induction with γ-GCS (250 nM) is on record as 3.2 fold induction above DMSO control. Besides, the NQO1 induction in the data set with NQO1 was 1.7 fold induction above DMSO control. Further, the HO-1 induction in the data set with HO-1 (250 nM) was 1.1 fold induction above DMSO control.

As for `CC1(C)CC[C@]2(NS(C)(=O)=O)CC[C@]3(C)[C@H](C(=O)C[C@@H]4[C@@]5(C)C=C(C#N)C(=O)C(C)(C)[C@@H]5CC[C@]43C)[C@@H]2C1` [Compound 63215, N-((4aS,6aR,6bR,8aR,12aR,12bR,14aR,14bS)-11-cyano-2,2,6a,6b,9,9,12a-heptamethyl-10,14-dioxo-1,2,3,4,4a,5,6,6a,6b,7,8,8a,9,10,12a,12b,13,14,14a,14b-icosahydropicen-4a-yl)methanesulfonamide], the γ-GCS induction is listed as 3.8 fold induction above DMSO control in the data set on γ-GCS (250 nM) and 21% of induction observed for RTA 402 in the data set with γ-GCS (400 nM, 16 hours). In addition, the NQO1 induction in the data set with NQO1 is recorded as 1.7 fold induction above DMSO control. In addition, in the data set on TrxR1 (400 nM), the TrxR1 induction was 36% of induction observed for RTA 402. Also, the HO-1 induction in the data set with HO-1 (250 nM) is reported as 1.7 fold induction above DMSO control; in the data set on HO-1 (400 nM, 16 hours), 1% of induction observed for RTA 402. The IC50 with RAW264.7 macrophages (Mus musculus) is over 200 nM; in data set [4] (Mus musculus), about 15 nM.

On to `CC1(C)CC[C@]2(NS(=O)(=O)C3CC3)CC[C@]3(C)[C@H](C(=O)C=C4[C@@]5(C)C=C(C#N)C(=O)C(C)(C)[C@@H]5CC[C@]43C)[C@@H]2C1` [Compound 63243, N-((4aS,6aR,6bS,8aR,12aS,14aR,14bS)-11-cyano-2,2,6a,6b,9,9,12a-heptamethyl-10,14-dioxo-1,2,3,4,4a,5,6,6a,6b,7,8,8a,9,10,12a,14,14a,14b-octadecahydropicen-4a-yl)cyclopropanesulfonamide], for which, in the data set with γ-GCS (160 nM, 16 hours), the γ-GCS induction is on record as 36% of induction observed for RTA 402. The “iNOS suppr. qPCR” value in the data set on iNOS [2] is on record as 50%. Also, in the data set on TrxR1 (160 nM), the TrxR1 induction was 57% of induction observed for RTA 402. In the data set on HO-1 (160 nM, 16 hours), the HO-1 induction was 25% of induction observed for RTA 402. Besides, the IC50 in the data set on RAW264.7 macrophages (Mus musculus) came to 150 nM; in data set [4] (Mus musculus), 2.9 nM. Moreover, in the data set on iNOS [3], the inhibition at 0.3 µM was about 90%.

Turning to “N-((4aS,6aR,6bR,8aR,12aR,12bR,14aR,14bS)-11-cyano-2,2,6a,6b,9,9,12a-heptamethyl-10,14-dioxo-1,2,3,4,4a,5,6,6a,6b,7,8,8a,9,10,12a,12b,13,14,14a,14b-icosahydropicen-4a-yl)-2,2,2-trifluoroethanesulfonamide [Compound 63254]”, the γ-GCS induction in the data set on γ-GCS (250 nM) is reported as 3 fold induction above DMSO control. Moreover, in the data set on NQO1, the NQO1 induction is reported as 1.7 fold induction above DMSO control. Also, the HO-1 induction with HO-1 (250 nM) was 2 fold induction above DMSO control. Moreover, the half-maximal inhibitory concentration (IC50) with RAW264.7 macrophages is over 200 nM; in data set [4], about 25 nM.

Values taken from patent publication US9670147B2, “Antioxidant inflammation modulators: oleanolic acid derivatives with amino and other modifications at C-17” (REATA PHARMACEUTICALS, INC., priority 2008, dated 2017).
